Measured values published in patent US8293781B2, “Indole derivatives having cPLA2 inhibiting activity and applications and production methods of the same” (Daiichi Sankyo Company, Limited, priority 2007, dated 2012).
Structures can show the parent of a compound that is named as a salt.

Key:
[1] = tested on: PGE2 production in mouse peritoneal exudate cells; test: LPS-induced PGE2 production system using mouse peritoneal exudate cells; type: cell-based; conditions: LPS 10 μg/ml, 6 hours
Experimental: For evaluation of the PGE2 production inhibiting activity, the lipopolysaccharide (LPS)-induced PGE2 production system using mouse peritoneal exudate cells with reference to the method of Kim et al. (see Kim, Y K et al., Biol Pharm Bull 25: 472, 2002) was used. That is, 2 ml of thioglycolate solution (made by Sigma, Brewer's Thioglycorate medium) per mice were intraperitoneally administered to 8-week old female C3H/HeN mice (Charles River Japan). After 4 days, a phosphate buffer saline (PBS) 5 ml was used to wash the abdominal cavity and the infiltrating cells were recovered. The recovered cells were suspended in a predetermined concentration in an RPMI1640 medium (Nacalai Tesque) containing 10% bovine fetal serum (BioWhittaker) and 10 μg/ml gentamycin (Invitrogen).
The infiltrating cell suspension 100 μl containing 2×10^5 cells per well was inoculated in a 96-well culture plate, then the test compound solution or solvent 50 μl was added. Under conditions of 5% CO2 and 37° C., this was precultured for 15 minutes, then LPS (made by Sigma: L-4524) solution 50 μl (final concentration of LPS of 10 μg/ml) was added, and the mixture was cultured for a further 6 hours. After the end of the culture, the culture supernatant was recovered and the PGE2 concentration in the supernatant was measured using an EIA kit (made by Amersham). Based on the measurement value, the test compound concentration suppressing 50% of the PGE2 production at the time of non-addition of a compound (IC50 value) was calculated.

[2] = tested on: PGD2 production in rat mast cell like cell line RBL-2H3; test: Antigen-induced PGD2 production system using RBL-2H3 sensitized by DNP specific IgE; type: cell-based; conditions: 0.5 h, RBL-2H3, anti-DNP-IgE sensitized, antigen 10 μg/ml, 30 minutes
Experimental: To evaluate the PGD2 production inhibiting activity, the antigen-induced PGD2 production system using rat mast cell like cell line RBL-2H3 sensitized by a dinitrophenol (DNP) specific IgE with reference to the method of Yamashita et al. (see Yamashita, M. et al., Br J Pharmacol 129: 367, 2000) was used. That is, rat mast cell like cell line RBL-2H3 cells were suspended in a Dulbecco's modified Eagle's medium (Nacalai Tesque) containing 10% bovine fetal serum (BioWhittaker) and 10 μg/ml gentamycin (Invitrogen). The infiltrating cell suspension 200 μl containing 1×10^5 cells per well was inoculated to 96-well culture plate and cultured over night under conditions of 5% CO2 and 37° C. The culture supernatant was removed, then the suspension was cultured for 2 hours in the presence of an anti-DNP-IgE antibody (1 μg/ml) for 2 hours to sensitize it. After the sensitization, the supernatant was removed and the test compound solution or solvent was added. The resultant product was precultured for 30 minutes, then 10 μg/ml of antigen (DNP-human serum albumin conjugate) was added to elicite PGD2 production.
30 minutes after antigen stimulus, the culture supernatant was recovered and the amount of PGD2 in the supernatant was measured using an EIA kit (made by Cayman). Based on the measurement value, the test compound concentration (IC50 value) suppressing the amount of PGD2 production at the time of nonaddition of the compound by 50% was calculated.

[3] = tested on: TPA-induced mouse dermatitis model; test: TPA-induced mouse dermatitis model (ear thickness); type: in vivo; conditions: 50 mg/kg orally 30 minutes before TPA, 6 hours after TPA, C57BL/6 mice
Experimental: Phorbol ester (TPA) was applied to the ear to elicite acute inflammation having ear edema as a main symptom. In the present test model, it is known that arachidonic acid metabolites, constituting various lipid mediators, are involved in inflammation. By this Experiment, it is possible to evaluate the anti-inflammatory action in vivo of anti-inflammatory drugs acting on the arachidonic acid cascade.
The Experiment was performed with reference to the method of Chang et al. (see Chang J., Eur J Pharmacol 142: 197, 1987). That is, the ear of female C57BL/6 mice (Charles River Japan) were painted with 20 μl of TPA in an acetone solution (concentration 50 μg/ml) to induce dermatitis at the ear. The ear thicknesses before application of TPA and 6 hours after application of TPA were measured using a dial gauge and the increase in ear thickness caused by inflammation was calculated. The test compound or the 0.5% hydroxypropyl cellulose solution as vehicle was administered orally to the mice 30 minutes before application of TPA. Note that the number of mice used in the test was made six per group.
Based on the measurement value, the action of each test compound in suppressing the increase in ear thickness due to application of TPA was evaluated.

[4] = tested on: guinea pig antigen induced bronchial asthma model; test: Guinea pig antigen induced bronchial asthma model: airway resistance (IAR, LAR); type: in vivo; conditions: for IAR suppression rate (airway resistance): immediate asthmatic response, 1 minute after challenge; for LAR suppression rate (airway resistance): late asthmatic response, AUC 4 to 8 hours
Experimental: (§1) Hartley male guinea pigs (Kyudo Co., Ltd.) were sensitized by inhaling the aerosolized 1% OVA-containing physiological saline solution for consecutive 8 days. One week after the final sensitization, antigen antibody reaction was elicited by inhaling the aerosolized 2% OVA-containing physiological saline solution. 24 hours and 1 hour before antigen challenge, metyrapone (10 mg/kg, 1.0 ml/kg) was injected to the hind limb peripheral vein. 30 minutes before antigen challenge, pyrilamine maleate (10 mg/kg, 1.0 ml/kg) was administered intraperitoneally. The test compound (5 mg/kg and 20 mg/kg, 5.0 ml/kg) was administered once a day from the day after the final sensitization to the day before challenge. On the day of challenge, it was administered orally 1 hour before challenge and 8 hours after challenge. Note that the number of mice used in the test was made eight per group.
The airway resistance (sRaw) was measured using a total respiratory function analysis system (Pulmos-I, made by M.I.P.S.) before antigen challenge, 1 minute after finishing the antigen challenge, and 2, 4, 5, 6, 7, 8, and 22 to 24 hours after antigen challenge. […] The late asthmatic response (LAR) was evaluated by calculating the AUC from the rate of change 4 to 8 hours after inducement based on the measurement values and finding the value obtained by subtratcting the AUC of each compound administered group from the AUC of the vehicle administered group with the control inhibition rate as a percent (%) with respect to the value of the vehicle administered group. The rates of suppression of typical compounds with respect to the increases in airway resistances in immediate asthmatic response (IAR) and late asthmatic response (LAR) are shown in Table 8.

[5] = tested on: guinea pig antigen induced bronchial asthma model; test: Guinea pig antigen induced bronchial asthma model: airway hyperreactivity to acetyl choline; type: in vivo; conditions: 22 to 24 hours after inducement
Experimental: as §1
The airway hyperreactivity was measured 22 to 24 hours after inducement. Physiological saline solution and acetyl choline in 0.0625, 0.125, 0.25, 0.5, 1, and 2 mg/ml amounts in physiological saline solutions were successively nebulized and made to be inhaled by guinea pigs 1 minute at a time each, then the sRaw was measured by a total respiratory function analysis system (Pulmos-I, made by M.I.P.S.) The results of evaluation of typical compounds are shown in Table 9 for different acetyl choline concentrations (PC100Ach, mg/ml) inducing 100% airway resistance.

| Compound | IC50 [1] [µM] | IC50 [2] [µM] | Suppression rate of increase in ear thickness [3] [%] | IAR suppression rate (airway resistance) ([4]; 5 mg/kg oral) [%] | LAR suppression rate (airway resistance) ([4]; 5 mg/kg oral) [%] | IAR suppression rate (airway resistance) ([4]; 20 mg/kg oral) [%] | LAR suppression rate (airway resistance) ([4]; 20 mg/kg oral) [%] | PC100ACh (acetyl choline concentration inducing 100% airway resistance) ([5]; 5 mg/kg oral) [mg/mL] | PC100ACh (acetyl choline concentration inducing 100% airway resistance) ([5]; 20 mg/kg oral) [mg/mL] |
| --- | --- | --- | --- | --- | --- | --- | --- | --- | --- |
| O=C(O)CCc1ccc2c(c1)c(CCc1ccccc1)cn2-c1ccc(O)cc1 [Example 126, 3-[1-(4-hydroxyphenyl)-3-(2-phenylethyl)-1H-indol-5-yl]propanoic acid] | 0.54 | 1.21 | 27.6 |  |  |  |  |  |  |
| O=C(O)CCc1ccc2c(c1)c(CCc1ccccc1)cn2-c1ccc(F)cc1 [Example 187, 3-[1-(4-fluorophenyl)-3-(2-phenylethyl)-1H-indol-5-yl]propanoic acid] | 0.28 | 0.43 | 25.4 |  |  |  |  |  |  |
| O=C(O)CCc1ccc2c(c1)c(CCc1ccccc1)cn2-c1ccc(OC(F)F)cc1 [Example 190, 3-{1-[4-(difluoromethoxy)phenyl]-3-(2-phenylethyl)-1H-indol-5-yl}propanoic acid 2-amino-2-(hydroxymethyl)propane-1,3-diol salt (1:1)] | 0.85 | 1.11 | 27.6 | 2 | 46 | 2 | 42 | 0.57 | 0.50 |
| COCc1ccc(-n2cc(CCc3ccccc3)c3cc(CCC(=O)O)ccc32)cc1 [Example 217, 3-{1-[4-(methoxymethyl)phenyl]-3-(2-phenylethyl)-1H-indol-5-yl}propanoic acid 2-amino-2-(hydroxymethyl)propane-1,3-diol salt (1:1)] | 1.7 | 1.12 | 22.8 |  |  |  |  |  |  |
| O=C(O)CCc1ccc2c(c1)c(CCc1ccccc1)cn2-c1ccc(OCCO)cc1 [Example 229, 3-{1-[4-(2-hydroxyethoxy)phenyl]-3-(2-phenylethyl)-1H-indol-5-yl}propanoic acid 2-amino-2-(hydroxymethyl)propane-1,3-diol salt (1:1)] | 0.8 | 0.89 | 23.9 | 15 | 22 | 33 | 37 | 0.47 | 0.74 |
| O=C(O)CCc1ccc2c(c1)c(CCc1ccccc1)cn2-c1ccc(Oc2ccccc2)cc1 [Example 231, 3-[1-(4-phenoxyphenyl)-3-(2-phenylethyl)-1H-indol-5-yl]propanoic acid 2-amino-2-(hydroxymethyl)propane-1,3-diol salt (1:1)] | 0.5 | 0.76 | 30.4 | 21 | 45 | 59 | 78 | 1.02 | 1.09 |
